Test results: patent publication US9034814B2, “CXCR4 antagonists for wound healing and re-epithelialization” (Hadasit Medical Research Services and Development Ltd., priority 2005, dated 2015)
Entries after “also recorded” stand apart in the source; their conditions may differ. Bridge positions count the residues as written; N and C are the ends. Square brackets hold non-standard residues; d marks the D form. * marks the point of attachment. 2Nal = N[C@@H](Cc1ccc2ccccc2c1)C(=O)O; Benzoyl(4-F) = O=C(c1ccc(F)cc1)*; Cit = NC(=O)NCCC[C@H](N)C(=O)O

What was measured:
CXCR4 = target: T1, CXCR4 (Rattus norvegicus, UniProt O08565); test: Transwell migration of rat lymphocytes in response to CXCL12; assay type: cell-based; conditions: CXCL12 100 ng/ml; antibody against CXCR4 10 μg/ml; FIG. 8
T1 construct: endogenous in cells; host or cells: rat peripheral blood mononuclear cells / lymphocytes (Ficoll-Histopaque isolated)
Method: Rat peripheral blood cells were loaded on Ficoll-Histopaque gradient (Histopaque-1077-1, Sigma) and the peripheral blood mononuclear cells (PBMC) were isolated. Rat PBMC migration was assessed in 24-well chemotaxis chambers (6.5-mm diameter, 5-μm pore polycarbonate transwell culture insert; Costar, Cambridge, Mass.). 600 μl RPMI 1640 with 1% BSA (migration buffer) with or without 100 ng/ml of CXCL12α (Peprotech) were added to the lower wells, and 2×10^5 cells suspended in 100 μl of RPMI 1640 with 1% BSA were added to the upper wells. After three hours of incubation, the membrane was removed and migrating cells were counted for 1 min using fluorescence activated cell sorting (FACS).
In order to evaluate the effect of the CXCR4 antagonist 4F-benzoyl-TN14003 and neutralizing antibodies to the receptor on the recovery of rat skin, the inventors first tested their ability to inhibit the migration of rat lymphocytes in response to CXCL12. Migration assay was carried out on total rat lymphocytes separated by Ficoll gradient and their migrating ability to medium containing CXCL12 was examined. Lymphocytes were incubated with the CXCR4 antagonist 4F-benzoyl-TN14003, or an antibody against CXCR4 (10 μg/ml).

[1] = test system: partial thickness burns in a rat model; test: Rat partial thickness burn wound healing, histological evaluation; assay type: in vivo
Source text: In order to examine the different phases in burn wound healing and the involvement of the chemokine CXCL12 and the receptor CXCR4, the following experiments were done. Wistar female rats were anesthetized and their back was shaved. 1 cm^2 burns were inflicted with a metal rod that has been immersed in a hot boiling water bath and laid on the posterior part of the hip and back for 2-3 seconds. All experiments were approved by the Animal care committee of the Medical Center, Tel-Aviv and the Hebrew University. Heterozygous mice bearing a GFP reporter knocked-in allele to the CX3CR1 locus (Qu et al. 2004) were maintained at the Weizmann Institute of Science Animal Facility, and burns were inflicted as described above. Each group of 3 animals was injected subcutaneously to the burned area with PBS. Animals were sacrificed at the indicated times after burn infliction: 0, 6 hr, 1 day, 3 days, 5 days and 7 days. Histopathological diagnosis was confirmed for each specimen. Histological sections were prepared from formalin-fixed, paraffin-embedded tissues stained with Hematoxylin and Eosin. Evaluation to the level of epithelialization and white blood cells (WBC) in the epidermis and dermis was made to each section by a scale from 1-5. The sections were scored by two independent pathologists.
In other experiments, treated rats were injected subcutaneously to the burned area with one of the following: PBS, mAb against Rat CXCR4 (12G5 clone, R&D Systems Inc., Minneapolis, Minn.), or the small peptide CXCR4 inhibitor 4F-benzoyl-TN14003 (4F-benzoyl-Aig-Arg-Nal-Cys-Tyr-Cit-Lys-DLys-Pro-Tyr-Arg-Cit-Cys-Arg-NH2, SEQ ID NO:52; Tamamura et al., 2003). All animals were sacrificed 120 hr after injury. Histopathological diagnosis was confirmed for each specimen. Histological sections were prepared from formalin-fixed, paraffin-embedded tissues stained with Hematoxylin and Eosin. Evaluation to the level of epithelialization and white blood cells (WBC) in the dermis was made to each section by a scale from 1-5. The grading scale was as follows: 0=No inflammation or epithelialization; 1=Low inflammation or epithelialization; 2=Low to moderate inflammation or epithelialization; 3 Moderate inflammation or epithelialization; 4=High inflammation or epithelialization; 5=Very high inflammation or epithelialization. Each section was evaluated by two independent pathologists.
Next, the inhibitory effect of CXCR4 antagonists on burn wound healing was examined (FIG. 9). Inhibitors were injected subcutaneously to the burned area at 0, 1 day, and 3 days (20 μg per injection), and animals were sacrificed 5 days post burn. […] A small but not significant decrease in the PMN population in the dermis was observed (FIG. 10). […]

[2] = rat burn, 20 μg per injection s.c. at 0, 1 day, 3 days, 5 days post burn, FIG. 11

T1 sequence (O08565 whole entry): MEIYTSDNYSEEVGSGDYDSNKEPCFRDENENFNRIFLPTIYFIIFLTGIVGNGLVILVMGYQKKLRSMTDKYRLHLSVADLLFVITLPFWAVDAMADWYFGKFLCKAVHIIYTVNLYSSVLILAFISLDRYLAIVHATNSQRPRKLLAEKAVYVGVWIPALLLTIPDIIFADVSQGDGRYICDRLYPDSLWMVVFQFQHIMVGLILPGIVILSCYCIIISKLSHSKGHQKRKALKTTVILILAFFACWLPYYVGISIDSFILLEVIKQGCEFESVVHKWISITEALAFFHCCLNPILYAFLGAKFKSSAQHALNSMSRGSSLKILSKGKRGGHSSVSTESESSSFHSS

4F-benzoyl-Arg-Arg-Nal-Cys-Tyr-Cit-Lys-DLys-Pro-Tyr-Arg-Cit-Cys-Arg-NH2 ({Benzoyl(4-F)}-RR[2Nal]CY[Cit]K[dK]PYR[Cit]CR-NH2; disulfide 4-13 (inferred)) [4F-benzoyl-TN14003]
effect on the migration of rat lymphocytes in response to CXCL12 (CXCR4): strong inhibitory effect
accumulation of PMN cell population in the epidermis [1, 2]: not affected
eosinophil accumulation in the dermis [1, 2]: reduced eosinophilia; also recorded: strong and significant inhibition
epithelialization ([1]; rat burn, 20 μg per injection subcutaneously to the burned area at 0, 1 day, 3 days, sacrificed 5 days post burn, FIG. 9): improved epithelialization; also recorded: increased epithelialization
potency in improving wound healing in vivo, peptide antagonist versus neutralizing mAb ([1]; rat partial thickness burns): more potent than the neutralizing mAb
